The pEC50 is the negative decadic logarithm of the EC50, by convention in mol/L. A word on the GI50: it is the concentration at which growth is held to half of that of the control. As usually defined, the Cmax is the maximum level reached in the sampled fluid or tissue. Usually Tmax stands for the time from dosing to the highest level. As a reminder, the AUC(0-t) is exposure summed from dosing to a finite time, without extrapolation to infinity. A lower AUC(0-t) goes with less exposure. The term AUC(0-inf) denotes the area under the concentration-time curve extrapolated to infinity. Low values mean less exposure, high ones more exposure. As usually defined, the half-life is the time needed for the level to fall by half in the phase considered. A higher half-life goes with slow decline. The term bioavailability denotes dose-corrected exposure relative to a reference, in per cent. A higher bioavailability goes with good availability. Broadly, the clearance is the rate of elimination divided by the concentration. A high value points to efficient removal. What is called Vd is a proportionality between amount in the body and measured concentration, not a real space. A lower Vd goes with little distribution into tissue. One may read the solubility as the concentration that dissolves in the medium under given conditions. Lower therefore signals a poorly soluble substance.

The values that follow come from ChEMBL document CHEMBL1938322, “Towards a modern definition of vitamin E-evidence for a quinone hypothesis” (Bioorg Med Chem Lett, 2012).

pEC50: −log10 of the molar value. Values after ≈ are worked out from the molar mass of the structure shown.

Series [1] concerns Fibroblast. In words: Cytoprotective activity against BSO-induced human FRDA primary patient fibroblasts compound pretreated 12 hrs prior to BSO-induction measured after 48 hrs by calcein-AM-based cell viability assay. The class given is functional.
A short description of series [2]: Growth inhibition of human FRDA primary patient fibroblasts after 48 hrs by calcein-AM-based cell viability assay. To be noted: for GI50 at 48 h: FRDA primary patient fibroblasts. Also on record: species or system Fibroblast.
A short description of series [3]: Therapeutic index, ratio of LC50 to GI50 for human FRDA primary patient fibroblasts. The class given is cell-based, Fibroblast. To be noted: for selectivity ratio: FRDA primary patient fibroblasts, read-out: TI.
For series [4], the species on record is Rattus norvegicus. Description: Prolongation of partial thromboplastin time in female Wistar rat. The format is ADME, organism-based. The conditions noted are these: in vivo.
Series [5] has as its system Fibroblast. Description: Ratio of CoQ10 EC50 to compound EC50 for cytoprotection against BSO-induced human FRDA primary patient fibroblasts. The class given is functional.
Series [6] deals with Fibroblast. Description: Ratio of idebenone EC50 to compound EC50 for cytoprotection against BSO-induced human FRDA primary patient fibroblasts. The class given is functional.
For series [7], the system named is Fibroblast. In words: Ratio of alpha-tocopherol EC50 to compound EC50 for cytoprotection against BSO-induced human FRDA primary patient fibroblasts. The class given is functional.
A short description of series [8]: Growth inhibition of human primary fibroblasts after 48 hrs by calcein-AM-based cell viability assay. More on the design: species or system Fibroblast.
Series [9] can be described thus: Cmax in mouse plasma at 10 mg/kg, po by HPLC analysis. The class given is ADME, organism-based. Also on record: dose 10 mg/kg, route oral.
Series [10] is described as follows: Cmax in rat plasma at 100 mg/kg, po by HPLC analysis. The class given is ADME, organism-based. Also on record: dose 100 mg/kg, route oral.
The nature of series [11]: Cmax in dog plasma at 25 mg/kg, po by HPLC analysis. The class given is ADME, organism-based, Canis lupus familiaris. More on the design: dose 25 mg/kg, route oral.
Series [12] can be described thus: Tmax in mouse plasma at 10 mg/kg, po by HPLC analysis. The format is ADME, organism-based. More on the design: dose 10 mg/kg, route oral.
Series [13] is described as follows: Tmax in rat plasma at 100 mg/kg, po by HPLC analysis. The format is ADME, organism-based. More on the design: dose 100 mg/kg, route oral.
The nature of series [14]: Tmax in dog plasma at 25 mg/kg, po by HPLC analysis. Also on record: dose 25 mg/kg, route oral. The class given is ADME, organism-based, Canis lupus familiaris.
The nature of series [15]: AUCt in mouse plasma at 5 mg/kg, iv by HPLC analysis. The format is ADME, organism-based. Also on record: dose 5 mg/kg, route intravenous.
The nature of series [16]: AUCt in mouse plasma at 10 mg/kg, po by HPLC analysis. The class given is ADME, organism-based. More on the design: dose 10 mg/kg, route oral.
Series [17] in a line: AUCt in rat plasma at 100 mg/kg, po by HPLC analysis. The format is ADME, organism-based. Also on record: dose 100 mg/kg, route oral.
Series [18] is described as follows: AUCt in dog plasma at 25 mg/kg, po by HPLC analysis. More on the design: dose 25 mg/kg, route oral. The class given is ADME, organism-based, Canis lupus familiaris.
Series [19] is described as follows: AUC (0 to infinity) in mouse plasma at 5 mg/kg, iv by HPLC analysis. The class given is ADME, organism-based. Also on record: time infinity, dose 5 mg/kg, route intravenous.
The nature of series [20]: AUC (0 to infinity) in mouse plasma at 10 mg/kg, po by HPLC analysis. The format is ADME, organism-based. Also on record: time infinity, dose 10 mg/kg, route oral.
Series [21] in a line: AUC (0 to infinity) in rat plasma at 100 mg/kg, po by HPLC analysis. The class given is ADME, organism-based. More on the design: time infinity, dose 100 mg/kg, route oral.
Series [22] can be described thus: AUC (0 to infinity) in dog plasma at 25 mg/kg, po by HPLC analysis. More on the design: time infinity, dose 25 mg/kg, route oral. The format is ADME, organism-based, Canis lupus familiaris.
Series [23] is described as follows: Half life in mouse plasma at 5 mg/kg, iv by HPLC analysis. The format is ADME, organism-based. More on the design: dose 5 mg/kg, route intravenous.
Series [24] can be described thus: Half life in mouse plasma at 10 mg/kg, po by HPLC analysis. The format is ADME, organism-based. Also on record: dose 10 mg/kg, route oral.
Series [25] is described as follows: Half life in rat plasma at 100 mg/kg, po by HPLC analysis. More on the design: dose 100 mg/kg, route oral. The class given is ADME, organism-based.
A short description of series [26]: Half life in dog plasma at 25 mg/kg, po by HPLC analysis. The format is ADME, organism-based, Canis lupus familiaris. More on the design: dose 25 mg/kg, route oral.
Series [27] is described as follows: Oral bioavailability in mouse plasma at 10 mg/kg by HPLC analysis. The class given is ADME, organism-based.
Series [28] can be described thus: Clearance in mouse plasma at 5 mg/kg, iv by HPLC analysis. The format is ADME, organism-based. Also on record: dose 5 mg/kg, route intravenous.
A short description of series [29]: Volume of distribution in mouse plasma at 5 mg/kg, iv by HPLC analysis. The format is ADME, organism-based. More on the design: dose 5 mg/kg, route intravenous.
The test system of series [30] is Salmonella typhimurium. Description: Mutagenic activity in Salmonella Typhimurium by Ames test. The class given is toxicity, organism-based. The conditions noted are these: salmonella enterica subsp. enterica serovar typhimurium.
The test system of series [31] is CHO. In words: Induction of micronucleation in CHO cells. The class given is cell-based, Cricetulus griseus. The conditions noted are these: chinese hamster.
Series [32] addresses Cytochrome P450 3A4 (Homo sapiens, UniProt P08684). In words: Inhibition of […] at 10 uM. The class given is ADME.
Series [33] deals with Cytochrome P450 2C9 (Homo sapiens, UniProt P11712). In words: Inhibition of CYP2C9 at 10 uM. The class given is ADME.
Chain of Cytochrome P450 2C9 (P11712 whole entry): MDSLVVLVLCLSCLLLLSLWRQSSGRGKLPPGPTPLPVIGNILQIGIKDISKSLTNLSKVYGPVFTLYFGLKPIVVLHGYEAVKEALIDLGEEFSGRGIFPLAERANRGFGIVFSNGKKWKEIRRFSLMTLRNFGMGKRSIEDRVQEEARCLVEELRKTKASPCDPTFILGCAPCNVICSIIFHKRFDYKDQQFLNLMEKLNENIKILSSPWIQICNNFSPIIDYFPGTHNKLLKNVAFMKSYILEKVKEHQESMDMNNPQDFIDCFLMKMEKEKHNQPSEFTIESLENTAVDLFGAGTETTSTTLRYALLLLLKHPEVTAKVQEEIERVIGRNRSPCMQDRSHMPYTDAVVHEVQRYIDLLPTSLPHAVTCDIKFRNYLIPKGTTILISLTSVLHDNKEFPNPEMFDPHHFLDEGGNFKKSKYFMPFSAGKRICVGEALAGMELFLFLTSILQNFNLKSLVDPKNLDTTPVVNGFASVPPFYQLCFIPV
The target of series [34] is Cytochrome P450 2C19 (Homo sapiens, UniProt P33261). Description: Inhibition of CYP2C19 at 10 uM. The class given is ADME.
Chain of Cytochrome P450 2C19 (P33261 whole entry): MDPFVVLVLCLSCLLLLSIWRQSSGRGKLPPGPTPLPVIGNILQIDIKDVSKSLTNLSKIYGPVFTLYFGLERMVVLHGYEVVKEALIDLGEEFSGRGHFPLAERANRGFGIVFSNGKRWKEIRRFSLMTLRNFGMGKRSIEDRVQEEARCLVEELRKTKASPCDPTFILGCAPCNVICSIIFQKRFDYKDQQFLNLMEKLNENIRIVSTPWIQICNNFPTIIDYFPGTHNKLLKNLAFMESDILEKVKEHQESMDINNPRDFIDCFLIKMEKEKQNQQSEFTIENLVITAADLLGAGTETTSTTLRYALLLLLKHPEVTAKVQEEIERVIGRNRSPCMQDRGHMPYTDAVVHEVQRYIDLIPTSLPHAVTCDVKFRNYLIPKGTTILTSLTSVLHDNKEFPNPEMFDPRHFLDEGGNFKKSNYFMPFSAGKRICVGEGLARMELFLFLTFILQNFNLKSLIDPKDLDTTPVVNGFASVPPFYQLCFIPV
Series [35] concerns the target Cytochrome P450 2D6 (Homo sapiens, UniProt P10635). In words: Inhibition of CYP2D6 at 10 uM. The class given is ADME.
Series [36] concerns the target T1, Cytochrome P450 1A2 (Homo sapiens, UniProt P05177).
T1 sequence (P05177 whole entry): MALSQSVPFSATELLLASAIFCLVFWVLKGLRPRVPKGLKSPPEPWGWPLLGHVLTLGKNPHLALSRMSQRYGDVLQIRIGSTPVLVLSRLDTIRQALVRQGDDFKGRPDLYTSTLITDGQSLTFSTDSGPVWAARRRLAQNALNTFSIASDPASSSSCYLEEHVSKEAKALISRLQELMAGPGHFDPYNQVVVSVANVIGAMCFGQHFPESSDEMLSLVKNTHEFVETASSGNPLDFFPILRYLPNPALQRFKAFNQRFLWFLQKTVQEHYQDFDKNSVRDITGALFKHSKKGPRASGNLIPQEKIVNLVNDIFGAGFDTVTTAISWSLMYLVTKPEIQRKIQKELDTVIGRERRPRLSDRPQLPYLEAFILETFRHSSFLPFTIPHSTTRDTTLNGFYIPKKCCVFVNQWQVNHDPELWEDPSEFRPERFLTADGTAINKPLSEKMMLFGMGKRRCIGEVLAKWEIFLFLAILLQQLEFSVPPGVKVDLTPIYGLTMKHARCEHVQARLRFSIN
Description: Inhibition of CYP1A2 at 10 uM. The format is ADME.

Series [37] can be described thus: Solubility of the compound. The class given is physicochemical.
Series [38] relates to Rattus norvegicus. Description: Toxicity in Wistar rat assessed as changes in body weight up to 2000 mg/kg, qd for 14 days. More on the design: dose 2000 mg/kg. The format is organism-based. To be noted: in vivo, 336 h.
The test system of series [39] is Rattus norvegicus. Description: Toxicity in Wistar rat assessed as changes in food intake up to 2000 mg/kg, qd for 14 days. The class given is organism-based. Also on record: dose 2000 mg/kg. The conditions noted are these: in vivo, 336 h.
Series [40] relates to Rattus norvegicus. Description: Toxicity in Wistar rat assessed as changes in water intake up to 2000 mg/kg, qd for 14 days. More on the design: dose 2000 mg/kg. The format is organism-based. The conditions noted are these: in vivo, 336 h.
The species named for series [41] is Rattus norvegicus. In words: Prolongation of partial thromboplastin time in male Wistar rat. The class given is ADME, organism-based. The conditions noted are these: in vivo.

Chain of Cytochrome P450 2D6 (P10635 whole entry): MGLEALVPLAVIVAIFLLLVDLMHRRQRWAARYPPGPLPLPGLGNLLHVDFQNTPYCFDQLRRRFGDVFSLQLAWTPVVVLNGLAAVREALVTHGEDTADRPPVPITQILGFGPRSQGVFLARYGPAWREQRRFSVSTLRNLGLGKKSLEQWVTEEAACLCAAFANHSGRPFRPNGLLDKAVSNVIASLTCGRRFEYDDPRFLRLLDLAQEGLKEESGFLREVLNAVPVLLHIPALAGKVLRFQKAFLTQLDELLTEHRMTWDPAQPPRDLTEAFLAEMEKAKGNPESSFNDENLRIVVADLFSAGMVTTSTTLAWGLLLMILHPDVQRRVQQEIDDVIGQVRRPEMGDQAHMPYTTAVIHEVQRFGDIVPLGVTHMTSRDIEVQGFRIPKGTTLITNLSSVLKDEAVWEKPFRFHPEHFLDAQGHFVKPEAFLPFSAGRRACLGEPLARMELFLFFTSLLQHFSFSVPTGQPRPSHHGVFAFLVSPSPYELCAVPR
Chain of Cytochrome P450 3A4 (P08684 whole entry): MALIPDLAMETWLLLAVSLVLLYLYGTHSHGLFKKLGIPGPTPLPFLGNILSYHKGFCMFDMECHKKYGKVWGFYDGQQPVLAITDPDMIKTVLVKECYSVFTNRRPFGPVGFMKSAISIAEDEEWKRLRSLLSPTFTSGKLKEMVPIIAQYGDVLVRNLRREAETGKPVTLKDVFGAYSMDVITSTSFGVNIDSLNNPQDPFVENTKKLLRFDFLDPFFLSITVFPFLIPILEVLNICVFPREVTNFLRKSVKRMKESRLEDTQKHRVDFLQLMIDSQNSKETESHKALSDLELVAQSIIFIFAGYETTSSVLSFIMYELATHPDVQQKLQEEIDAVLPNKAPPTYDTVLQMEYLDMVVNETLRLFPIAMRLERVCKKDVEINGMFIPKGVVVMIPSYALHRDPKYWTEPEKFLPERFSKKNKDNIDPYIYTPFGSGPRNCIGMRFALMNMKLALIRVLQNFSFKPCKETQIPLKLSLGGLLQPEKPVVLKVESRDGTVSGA

For `COC1=C(OC)C(=O)C(CCCCCCCCCCO)=C(C)C1=O` [IDEBENONE], the negative logarithm of the EC50 (pEC50) in [1] (Homo sapiens, Fibroblast) was 6.23. In addition, the GI50 at 48 h in series [2] was 98 µM. Further, the selectivity ratio in series [3] was found to be 165.

Consider `CC1=C(C)C(=O)C(CC[C@](C)(O)CCC[C@H](C)CCC[C@H](C)CCCC(C)C)=C(C)C1=O`, for which the Activity entry in series [4] is “Dose-dependent effect”; in series [1], “Dose-dependent effect”; in series [30], “Non-toxic”; in [31], “Non-toxic”; in series [38], “Non-toxic”; in series [39] it was “Non-toxic”. In addition, the Activity result in [40] was “Non-toxic”; in series [41], “Dose-dependent effect”. Moreover, the results for the “Ratio EC50” value in series [5], in series [6] and in series [7] were 200, 35 and 7, respectively. In addition, the negative logarithm of the EC50 (pEC50) in series [1] (Homo sapiens, Fibroblast) was 7.44. In addition, the GI50 at 48 h in series [2] and in [8] was at least 300 µM throughout. Moreover, in series [3], the selectivity ratio is at least 8330. Also, the Cmax in [9] was determined as 519 ng/mL; in series [10], 3010 ng/mL; in [11] it was 2370 ng/mL. The values for the Tmax in [12], in [13] and in series [14] were 1 h, 4 h and 2 h, respectively. Besides, the AUC(0-t) stood at 3980 ng·h/mL in series [15], 1980 ng·h/mL in series [16], 26400 ng·h/mL in series [17] and 14200 ng·h/mL in [18]. In addition, the AUC(0-inf) in [19] came out at 4240 ng·h/mL; in series [20] it was 2070 ng·h/mL; in series [21], 27900 ng·h/mL; in series [22], 16800 ng·h/mL. Further, the half-life is 16.2 h in [23], 5.8 h in [24], 16.6 h in [25] and 23.7 h in [26]. Besides, the bioavailability in series [27] is 24%. Also, in series [28], the clearance is 20 mL/min/kg. The distribution volume (Vd) in [29] was 27.6 L/kg. Besides, the “inhibition (INH)” value in [32], in [33], in [34], in [35] and in [36] was “Not Active” in each case. The solubility in series [37] is 10 µM (≈ 4.47 µg/mL).

Turning to VITAMIN E, the negative-log EC50 (pEC50) in series [1] (fibroblast) was 6.63. For the same compound, the GI50 in [2] (fibroblast, 48 h) was at least 300 µM. The TI entry in series [3] (fibroblast) is listed as “>= 1282”.

`COC1=C(OC)C(=O)C(C/C=C(\C)CC/C=C(\C)CC/C=C(\C)CC/C=C(\C)CC/C=C(\C)CC/C=C(\C)CC/C=C(\C)CC/C=C(\C)CC/C=C(\C)CCC=C(C)C)=C(C)C1=O` [UBIDECARENONE]: in series [2], the GI50 at 48 h was 220 µM.
